Reference: patent US9072762B2, “Natural composition to decrease effects of a high fat diet” (Board of Supervisors of Louisiana State University And …, priority 2009, dated 2015)

Assays:
[1] = tested on: VEGF; assay: Western blot of HUVEC cell lysates for VEGF expression; type: cell-based, human; conditions: 24 hrs, concentrations up to about 40 μg/ml
Procedure: (§1) The HUVEC assay used human umbilical vein endothelial cells purchased from the American Type Culture Collection (ATCC # CRL-1730, Manassas, Va.). Human umbilical vein endothelial cells (HUVEC) were grown in M199 media containing 20% fetal bovine serum, 30 μg/ml endothelial cell growth supplements, 4 mM L-glutamin, 100 U/ml penicillin, and 100 μg/ml streptomycin. Cells were incubated at 37° C. in a humidified atmosphere of 5% CO2. […] Cells were then lysed with lysis buffer containing 20 mM MOPS, 2 mM EGTA, 5 mM EDTA, 30 mM NaF, 40 mM (3-glycerophosphate, 20 mM sodium pyruvate, 0.5% Triton X-100, and 1 mM sodium orthovanadate with protease inhibitor cocktail (Sigma), and the cell lysates were subjected to protein analysis and western blotting analysis to assess for VEGF (vascular endothelial growth factor), FGF or bFGF (basic fibroblast growth factor), and FLK-1 (a VEGFR2 receptor protein) using the relevant antibodies of VEFG (R&D System), bFGF (Upstate Biotechnology); FLK-1 (Santa Cruz Biotechnology). (See Ma, J. et al., “PTEN regulate angiogenesis through PI3k/AktNEGF signaling pathway in human pancreatic cancer cells,” Mol. Cell Biochem., vol. 331, pp. 161-171 (2009); and Sukhthanjar, M., et al., “A green tea component suppresses posttranslational expression of basic fibroblast growth factor in colorectal cancer. Gastroenterology,” vol. 134, pp. 1972-1980 (2008)). β-Actin was used as a quality control of the assays.

[2] = type: in vivo, rat; conditions: for Oral bioavailability / absorption: rat, in vivo
Procedure: Thirty-two normal male SD rats were used in the experiment. Prior to treatment, all rats were fasted overnight. The treated group (n=24) received the RUS extract at a dose of 1 g/kg of body weight (0.1% w/w), and the control group (n=8) received the same volume of water via daily gavage for 3 consecutive days. All rats were given free access to food and water after the gavage. Urine was collected cumulatively for 24 hours on the third day after treatment began.

[3] = tested on: bFGF; assay: Western blot of HUVEC cell lysates for bFGF expression; type: cell-based, human; conditions: 24 hrs, concentrations up to about 40 μg/ml
Procedure: as §1

[4] = tested on: FLK-1 (a VEGFR2 receptor protein); assay: Western blot of HUVEC cell lysates for FLK-1 expression; type: cell-based, human; conditions: 24 hrs, concentrations up to about 40 μg/ml
Procedure: The HUVEC assay used human umbilical vein endothelial cells purchased from the American Type Culture Collection (ATCC # CRL-1730, Manassas, Va.). Human umbilical vein endothelial cells (HUVEC) were grown in M199 media containing 20% fetal bovine serum, 30 μg/ml endothelial cell growth supplements, 4 mM L-glutamin, 100 U/ml penicillin, and 100 μg/ml streptomycin. Cells were incubated at 37° C. in a humidified atmosphere of 5% CO2. […] Cells were then lysed with lysis buffer containing 20 mM MOPS, 2 mM EGTA, 5 mM EDTA, 30 mM NaF, 40 mM (3-glycerophosphate, 20 mM sodium pyruvate, 0.5% Triton X-100, and 1 mM sodium orthovanadate with protease inhibitor cocktail (Sigma), and the cell lysates were subjected to protein analysis and western blotting analysis to assess for VEGF (vascular endothelial growth factor), FGF or bFGF (basic fibroblast growth factor), and FLK-1 (a VEGFR2 receptor protein) using the relevant antibodies of VEFG (R&D System), bFGF (Upstate Biotechnology); FLK-1 (Santa Cruz Biotechnology). (See Ma, J. et al., “PTEN regulate angiogenesis through PI3k/AktNEGF signaling pathway in human pancreatic cancer cells,” Mol. Cell Biochem., vol. 331, pp. 161-171 (2009); and Sukhthanjar, M., et al., “A green tea component suppresses posttranslational expression of basic fibroblast growth factor in colorectal cancer. Gastroenterology,” vol. […]

[5] = rats, 24 hr urine after oral RUS 1.0 g/kg of body weight

| Compound | Expression of VEGF [1] | Oral bioavailability / absorption [2] | Expression of bFGF [3] | Expression of FLK-1 [4] | Unmetabolized compound in the urine [2, 5] [µg] | Unmetabolized compound in urine as % of amount orally administered [2, 5] |
| --- | --- | --- | --- | --- | --- | --- |
| C=C1C[C@@]23CC[C@H]4[C@@](C)(CCC[C@@]4(C)C(=O)O[C@@H]4O[C@H](CO)[C@@H](O)[C@H](O)[C@H]4O)[C@@H]2CC[C@]1(O[C@@H]1O[C@H](CO)[C@@H](O)[C@H](O)[C@H]1O)C3 [rubusoside] | did not inhibit the expression of either bFGF or VEGF | orally bioavailable | did not inhibit the expression of either bFGF or VEGF | reduced the expression of FLK-1 | – | – |
| O=C(O)c1cc(O)c(O)c(O)c1 [gallic acid] | inhibited the expression of VEGF in a concentration-dependent manner | – | did not suppress the expression of bFGF | slightly reduced the expression of FLK-1 | 91.7 | about 4.5% |
| O=c1oc2c(O)c(O)cc3c(=O)oc4c(O)c(O)cc1c4c23 [ellagic acid] | inhibited the expression of VEGF in a concentration-dependent manner | orally bioavailable | did not suppress the expression of bFGF | – | – | – |
